pIC50: −log10 of the molar value.
Biological target: lipid peroxidation in brain phospholipid liposomes (Bos taurus)
Assay: Tested for the inhibition of lipid peroxidation in bovine brain phospholipid liposomes

Structure (SMILES) | pIC50
O=C1c2c(O)cccc2C(=Cc2cc(O)c(O)c(O)c2)c2cccc(O)c21 [1,8-Dihydroxy-10-(3,4,5-trihydroxy-benzylidene)-10H-anthracen-9-one] | 5.70
O=C1c2c(O)cccc2C(=Cc2ccc(O)cc2)c2cccc(O)c21 [1,8-Dihydroxy-10-(4-hydroxy-benzylidene)-10H-anthracen-9-one] | 5.10
O=C1c2c(O)cccc2C(=Cc2ccc([N+](=O)[O-])cc2)c2cccc(O)c21 [1,8-dihydroxy-10-(4-nitrobenzylidene)anthracen-9(10H)-one] | 4.85
O=C1c2c(O)cccc2C(=Cc2ccc(O)c(O)c2)c2cccc(O)c21 [10-(3,4-dihydroxybenzylidene)-1,8-dihydroxyanthracen-9(10H)-one] | 5.70

Next, values leading:

pIC50 | Structure (SMILES)
5.40 | CCCC(=O)C1c2cccc(O)c2C(=O)c2c(O)cccc21 [10-Butyryl-1,8-dihydroxy-10H-anthracen-9-one(Butantrone)]
6.00 | O=C1c2c(O)cccc2C(C(=O)Cc2ccc(O)c(O)c2)c2cccc(O)c21 [10-[2-(3,4-Dihydroxy-phenyl)-acetyl]-1,8-dihydroxy-10H-anthracen-9-one]
5.10 | O=C1c2c(O)cccc2C(=Cc2ccccc2)c2cccc(O)c21 [10-benzylidene-1,8-dihydroxyanthracen-9(10H)-one]

Reference: BindingDB's records for doi:10.1021/jm00077a015 (Universität Regensburg, 1994)
